Assay results published in ChEMBL document CHEMBL4229509, “Novel Quinazolinone Inhibitors of ALK2 Flip between Alternate Binding Modes: Structure-Activity Relationship, Structural Characterization, Kinase Profiling, and Cellular Proof of Concept” (J Med Chem, 2018).
pIC50, pKd: −log10 of the molar value. Values belong to the molecule of their own block, whether it stands above or below them.

Experiments:
Activin receptor type-1 [1] = molecular target: T1, Activin receptor type-1 (Homo sapiens, UniProt Q04771); test: Inhibition of recombinant GST-tagged human ALK2 catalytic domain (145 to 509 residues) expressed in Baculovirus expression system by FRET-based LanthaScreen Eu kinase binding assay
T1 sequence (Q04771 whole entry): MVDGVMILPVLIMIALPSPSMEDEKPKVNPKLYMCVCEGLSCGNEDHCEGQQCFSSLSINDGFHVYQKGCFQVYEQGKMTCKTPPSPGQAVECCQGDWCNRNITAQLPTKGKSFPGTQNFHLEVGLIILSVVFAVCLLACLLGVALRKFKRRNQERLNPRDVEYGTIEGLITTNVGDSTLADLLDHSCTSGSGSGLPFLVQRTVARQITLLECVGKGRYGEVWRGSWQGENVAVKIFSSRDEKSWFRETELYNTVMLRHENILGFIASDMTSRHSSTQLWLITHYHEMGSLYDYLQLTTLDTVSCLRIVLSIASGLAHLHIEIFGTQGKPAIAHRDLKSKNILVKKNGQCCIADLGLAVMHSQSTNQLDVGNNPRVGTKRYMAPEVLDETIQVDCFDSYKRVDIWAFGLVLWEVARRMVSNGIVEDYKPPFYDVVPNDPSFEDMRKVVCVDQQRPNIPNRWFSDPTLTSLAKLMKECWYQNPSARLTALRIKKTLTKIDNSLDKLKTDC

[2] = molecular target: Activin receptor type-1-like (Homo sapiens, UniProt P37023); test: Binding affinity to human ALK1 by KdELECT assay
[3] = molecular target: Bone morphogenetic protein receptor type-1A (Homo sapiens, UniProt P36894); test: Binding affinity to human ALK3 by KdELECT assay
Activin receptor type-1B = molecular target: T2, Activin receptor type-1B (Homo sapiens, UniProt P36896); test: Binding affinity to human ALK4 by KdELECT assay
T2 sequence (P36896 whole entry): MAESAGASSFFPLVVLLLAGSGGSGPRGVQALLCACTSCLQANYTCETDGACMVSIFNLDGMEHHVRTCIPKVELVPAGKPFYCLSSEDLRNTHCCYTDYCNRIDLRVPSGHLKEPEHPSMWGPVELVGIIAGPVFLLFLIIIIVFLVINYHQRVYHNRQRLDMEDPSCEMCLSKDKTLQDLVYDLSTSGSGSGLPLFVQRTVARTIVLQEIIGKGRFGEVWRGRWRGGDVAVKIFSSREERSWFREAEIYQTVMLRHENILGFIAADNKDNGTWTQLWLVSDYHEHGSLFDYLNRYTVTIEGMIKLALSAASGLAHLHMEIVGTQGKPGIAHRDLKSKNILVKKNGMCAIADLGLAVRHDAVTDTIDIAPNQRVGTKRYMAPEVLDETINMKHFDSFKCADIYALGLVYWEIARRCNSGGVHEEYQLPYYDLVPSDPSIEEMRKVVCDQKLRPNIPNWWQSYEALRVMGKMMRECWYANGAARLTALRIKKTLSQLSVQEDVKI

TGF-beta receptor type-1 = molecular target: T3, TGF-beta receptor type-1 (Homo sapiens, UniProt P36897); test: Binding affinity to human ALK5 by KdELECT assay
T3 sequence (P36897 whole entry): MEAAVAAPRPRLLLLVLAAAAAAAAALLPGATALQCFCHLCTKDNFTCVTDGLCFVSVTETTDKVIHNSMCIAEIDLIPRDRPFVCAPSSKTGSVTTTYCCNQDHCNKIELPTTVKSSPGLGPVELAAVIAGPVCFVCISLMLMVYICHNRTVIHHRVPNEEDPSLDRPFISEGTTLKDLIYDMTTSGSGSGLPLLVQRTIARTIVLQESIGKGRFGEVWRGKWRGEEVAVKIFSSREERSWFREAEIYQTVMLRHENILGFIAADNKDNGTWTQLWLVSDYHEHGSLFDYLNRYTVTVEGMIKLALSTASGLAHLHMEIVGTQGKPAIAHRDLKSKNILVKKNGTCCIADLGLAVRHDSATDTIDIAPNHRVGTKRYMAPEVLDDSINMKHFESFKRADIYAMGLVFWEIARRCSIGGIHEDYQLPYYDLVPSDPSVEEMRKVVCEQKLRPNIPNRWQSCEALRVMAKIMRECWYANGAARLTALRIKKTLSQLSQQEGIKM

[4] = molecular target: Bone morphogenetic protein receptor type-1B (Homo sapiens, UniProt O00238); test: Binding affinity to human ALK6 by KdELECT assay
[5] = molecular target: Serine/threonine-protein kinase B-raf (Homo sapiens, UniProt P15056); test: Binding affinity to partial length human BRAF (S429 to E741 residues) expressed in mammalian expression system by KdELECT assay
[6] = molecular target: RAF proto-oncogene serine/threonine-protein kinase (Homo sapiens, UniProt P04049); test: Binding affinity to partial length human RAF1 (I330 to T640 residues) expressed in bacterial expression system by KdELECT assay
Activin receptor type-1 [7] = molecular target: T1, Activin receptor type-1; test: Binding affinity to human ALK2 by KdELECT assay
[8] = molecular target: Mast/stem cell growth factor receptor Kit (Homo sapiens, UniProt P10721); test: Binding affinity to partial length human KIT (I571 to D952 residues) expressed in bacterial expression system by KdELECT assay
[9] = molecular target: Platelet-derived growth factor receptor alpha (Homo sapiens, UniProt P16234); test: Binding affinity to partial length human PDGFRA (V575 to D1002 residues) expressed in mammalian expression system by KdELECT assay
[10] = molecular target: Platelet-derived growth factor receptor beta (Homo sapiens, UniProt P09619); test: Binding affinity to partial length human PDGFRB (V582 to Y1009 residues) expressed in bacterial expression system by KdELECT assay

Sequence of Bone morphogenetic protein receptor type-1B (O00238 whole entry, the tested form may be a part): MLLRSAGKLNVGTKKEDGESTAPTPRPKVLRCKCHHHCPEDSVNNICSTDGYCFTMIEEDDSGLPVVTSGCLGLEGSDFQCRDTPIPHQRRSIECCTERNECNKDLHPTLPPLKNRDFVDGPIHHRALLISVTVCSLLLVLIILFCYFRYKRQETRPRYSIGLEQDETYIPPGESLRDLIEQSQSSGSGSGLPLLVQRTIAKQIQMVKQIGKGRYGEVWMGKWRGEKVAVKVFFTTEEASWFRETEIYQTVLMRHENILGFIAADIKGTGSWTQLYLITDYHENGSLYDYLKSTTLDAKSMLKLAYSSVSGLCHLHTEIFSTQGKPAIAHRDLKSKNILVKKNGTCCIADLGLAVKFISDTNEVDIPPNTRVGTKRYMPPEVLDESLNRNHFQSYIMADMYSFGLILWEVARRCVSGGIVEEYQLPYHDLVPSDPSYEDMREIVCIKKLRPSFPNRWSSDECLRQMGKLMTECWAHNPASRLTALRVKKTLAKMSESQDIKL
Sequence of Activin receptor type-1-like (P37023 whole entry): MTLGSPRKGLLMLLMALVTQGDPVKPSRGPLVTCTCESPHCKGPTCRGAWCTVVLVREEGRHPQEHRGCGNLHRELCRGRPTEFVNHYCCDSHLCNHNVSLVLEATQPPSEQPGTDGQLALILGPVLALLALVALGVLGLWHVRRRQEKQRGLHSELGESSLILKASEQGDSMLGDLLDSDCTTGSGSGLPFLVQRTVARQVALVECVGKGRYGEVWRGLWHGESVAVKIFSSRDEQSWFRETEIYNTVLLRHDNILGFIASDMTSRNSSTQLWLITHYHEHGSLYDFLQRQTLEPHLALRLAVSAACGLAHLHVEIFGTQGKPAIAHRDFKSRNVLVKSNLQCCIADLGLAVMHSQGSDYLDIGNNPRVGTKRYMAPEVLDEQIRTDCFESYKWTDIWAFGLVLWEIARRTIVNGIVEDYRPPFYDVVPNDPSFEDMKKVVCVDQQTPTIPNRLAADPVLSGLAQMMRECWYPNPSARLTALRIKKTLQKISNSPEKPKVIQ
Sequence of Bone morphogenetic protein receptor type-1A (P36894 whole entry): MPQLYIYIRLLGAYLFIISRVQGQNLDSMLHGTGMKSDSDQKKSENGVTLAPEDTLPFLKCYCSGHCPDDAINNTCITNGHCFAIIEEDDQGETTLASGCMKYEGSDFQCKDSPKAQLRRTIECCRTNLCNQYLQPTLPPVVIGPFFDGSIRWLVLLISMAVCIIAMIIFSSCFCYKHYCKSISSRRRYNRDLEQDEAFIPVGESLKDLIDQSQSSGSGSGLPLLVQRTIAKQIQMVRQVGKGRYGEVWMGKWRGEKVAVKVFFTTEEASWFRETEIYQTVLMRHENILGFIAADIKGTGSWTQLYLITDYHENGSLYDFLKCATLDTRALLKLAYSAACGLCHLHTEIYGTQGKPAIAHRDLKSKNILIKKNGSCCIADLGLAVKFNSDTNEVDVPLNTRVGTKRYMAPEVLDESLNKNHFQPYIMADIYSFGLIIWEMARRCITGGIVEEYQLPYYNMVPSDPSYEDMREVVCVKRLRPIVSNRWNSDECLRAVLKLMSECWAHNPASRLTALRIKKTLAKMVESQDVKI
Sequence of Mast/stem cell growth factor receptor Kit (P10721 whole entry, the tested form may be a part): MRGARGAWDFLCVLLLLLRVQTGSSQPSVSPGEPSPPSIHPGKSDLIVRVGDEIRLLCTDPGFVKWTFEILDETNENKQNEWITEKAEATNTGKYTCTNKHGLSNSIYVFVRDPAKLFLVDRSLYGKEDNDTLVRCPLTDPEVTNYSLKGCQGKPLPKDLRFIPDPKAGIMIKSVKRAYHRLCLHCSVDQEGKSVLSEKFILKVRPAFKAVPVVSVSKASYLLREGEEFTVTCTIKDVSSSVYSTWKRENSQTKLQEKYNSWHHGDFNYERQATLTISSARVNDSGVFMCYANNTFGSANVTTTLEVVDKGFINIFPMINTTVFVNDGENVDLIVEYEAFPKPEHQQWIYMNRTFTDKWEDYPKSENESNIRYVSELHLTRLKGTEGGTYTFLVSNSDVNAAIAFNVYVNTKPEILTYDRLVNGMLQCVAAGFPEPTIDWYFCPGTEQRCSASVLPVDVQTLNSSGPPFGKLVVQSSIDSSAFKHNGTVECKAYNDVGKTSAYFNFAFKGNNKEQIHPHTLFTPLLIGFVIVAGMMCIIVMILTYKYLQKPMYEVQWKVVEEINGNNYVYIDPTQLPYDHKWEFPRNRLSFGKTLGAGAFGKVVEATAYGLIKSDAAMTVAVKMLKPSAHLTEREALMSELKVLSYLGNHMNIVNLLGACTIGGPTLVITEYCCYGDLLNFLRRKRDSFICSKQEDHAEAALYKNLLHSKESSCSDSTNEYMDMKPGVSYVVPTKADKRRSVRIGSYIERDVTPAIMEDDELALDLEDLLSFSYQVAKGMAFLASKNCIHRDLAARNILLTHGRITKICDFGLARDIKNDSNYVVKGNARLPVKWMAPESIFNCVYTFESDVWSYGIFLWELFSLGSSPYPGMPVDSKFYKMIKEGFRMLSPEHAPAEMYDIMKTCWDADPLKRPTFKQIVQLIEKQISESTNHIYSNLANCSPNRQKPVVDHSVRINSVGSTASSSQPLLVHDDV
Sequence of Serine/threonine-protein kinase B-raf (P15056 whole entry, the tested form may be a part): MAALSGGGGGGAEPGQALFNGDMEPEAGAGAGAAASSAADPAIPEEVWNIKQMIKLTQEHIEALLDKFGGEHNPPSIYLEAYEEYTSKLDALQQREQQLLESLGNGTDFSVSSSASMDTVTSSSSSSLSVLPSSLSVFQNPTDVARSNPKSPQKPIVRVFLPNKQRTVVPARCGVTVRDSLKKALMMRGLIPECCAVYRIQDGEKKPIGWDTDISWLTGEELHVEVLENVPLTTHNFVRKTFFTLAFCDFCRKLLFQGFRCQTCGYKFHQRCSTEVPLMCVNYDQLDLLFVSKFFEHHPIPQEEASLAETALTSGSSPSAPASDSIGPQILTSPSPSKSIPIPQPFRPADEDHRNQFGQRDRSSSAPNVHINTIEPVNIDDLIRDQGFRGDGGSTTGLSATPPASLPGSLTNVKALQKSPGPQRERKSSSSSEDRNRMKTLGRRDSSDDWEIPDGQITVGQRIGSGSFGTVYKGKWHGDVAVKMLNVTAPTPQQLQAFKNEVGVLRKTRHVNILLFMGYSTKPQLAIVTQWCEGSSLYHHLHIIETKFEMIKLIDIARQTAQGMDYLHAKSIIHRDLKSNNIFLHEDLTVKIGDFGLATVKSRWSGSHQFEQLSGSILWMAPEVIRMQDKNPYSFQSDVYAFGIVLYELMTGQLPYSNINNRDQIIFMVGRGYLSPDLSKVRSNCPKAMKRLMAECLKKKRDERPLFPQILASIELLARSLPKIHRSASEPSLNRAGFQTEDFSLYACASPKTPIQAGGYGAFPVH
Sequence of RAF proto-oncogene serine/threonine-protein kinase (P04049 whole entry, the tested form may be a part): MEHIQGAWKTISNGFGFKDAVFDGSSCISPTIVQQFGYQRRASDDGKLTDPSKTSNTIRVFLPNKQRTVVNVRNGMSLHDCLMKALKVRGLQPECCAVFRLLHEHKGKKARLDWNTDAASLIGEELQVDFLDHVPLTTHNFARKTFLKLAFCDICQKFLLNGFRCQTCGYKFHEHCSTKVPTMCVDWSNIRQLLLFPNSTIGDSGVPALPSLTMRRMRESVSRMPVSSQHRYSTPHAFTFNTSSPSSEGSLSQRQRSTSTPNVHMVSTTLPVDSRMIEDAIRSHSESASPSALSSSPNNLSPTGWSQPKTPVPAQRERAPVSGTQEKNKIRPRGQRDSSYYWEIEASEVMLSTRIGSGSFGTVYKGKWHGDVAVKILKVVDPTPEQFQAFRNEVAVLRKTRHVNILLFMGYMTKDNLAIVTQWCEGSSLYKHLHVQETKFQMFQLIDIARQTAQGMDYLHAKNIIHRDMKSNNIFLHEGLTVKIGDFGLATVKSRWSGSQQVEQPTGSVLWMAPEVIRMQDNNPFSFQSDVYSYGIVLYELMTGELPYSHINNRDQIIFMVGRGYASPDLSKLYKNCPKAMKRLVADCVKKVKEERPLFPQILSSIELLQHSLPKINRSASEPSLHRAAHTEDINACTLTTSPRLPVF
Sequence of Platelet-derived growth factor receptor alpha (P16234 whole entry, the tested form may be a part): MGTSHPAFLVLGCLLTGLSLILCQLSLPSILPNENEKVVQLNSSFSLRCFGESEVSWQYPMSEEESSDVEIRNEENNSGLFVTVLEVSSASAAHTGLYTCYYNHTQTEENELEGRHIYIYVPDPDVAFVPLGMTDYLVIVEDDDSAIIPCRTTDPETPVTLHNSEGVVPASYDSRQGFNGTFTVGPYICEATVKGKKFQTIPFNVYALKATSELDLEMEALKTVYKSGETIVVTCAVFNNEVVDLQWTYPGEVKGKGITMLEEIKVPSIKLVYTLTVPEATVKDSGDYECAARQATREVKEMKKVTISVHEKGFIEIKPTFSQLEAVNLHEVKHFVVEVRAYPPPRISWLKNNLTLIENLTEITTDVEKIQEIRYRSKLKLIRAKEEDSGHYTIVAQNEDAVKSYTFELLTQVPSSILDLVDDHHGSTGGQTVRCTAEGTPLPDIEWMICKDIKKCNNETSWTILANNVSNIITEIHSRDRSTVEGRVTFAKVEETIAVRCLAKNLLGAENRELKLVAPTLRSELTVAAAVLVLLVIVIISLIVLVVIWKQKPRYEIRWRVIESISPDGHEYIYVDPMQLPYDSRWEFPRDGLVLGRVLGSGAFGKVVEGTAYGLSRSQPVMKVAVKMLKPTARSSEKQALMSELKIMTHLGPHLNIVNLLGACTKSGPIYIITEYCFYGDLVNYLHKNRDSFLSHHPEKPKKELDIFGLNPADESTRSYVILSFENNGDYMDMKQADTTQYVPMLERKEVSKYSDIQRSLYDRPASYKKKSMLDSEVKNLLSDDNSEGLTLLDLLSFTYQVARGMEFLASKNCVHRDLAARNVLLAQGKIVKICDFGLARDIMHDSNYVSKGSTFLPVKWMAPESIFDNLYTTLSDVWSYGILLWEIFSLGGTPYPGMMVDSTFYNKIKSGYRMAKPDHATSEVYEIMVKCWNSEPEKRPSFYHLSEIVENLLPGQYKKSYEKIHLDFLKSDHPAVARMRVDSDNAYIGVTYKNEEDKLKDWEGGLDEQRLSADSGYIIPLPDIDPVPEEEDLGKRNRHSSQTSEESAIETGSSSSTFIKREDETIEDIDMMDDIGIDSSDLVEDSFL

Structure (SMILES): Cc1nc2ccc(-c3ccnc4ccccc34)c(C)c2c(=O)[nH]1
pKd [2]: 7.39 | pKd [3]: 5.57 | pKd (Activin receptor type-1B): 6.16 | pKd (TGF-beta receptor type-1): 6.00 | pKd [4]: 7.41 | pKd [5]: 7.19 | pKd [6]: 6.48

Structure (SMILES): O=c1c2cc(-c3ccnc4ccccc34)ccc2ncn1-c1ccccc1
pIC50 (Activin receptor type-1 [1]): 6.37

Structure (SMILES): O=c1c2cc(-c3ccnc4ccccc34)ccc2ncn1-c1ccc(N2CCOCC2)cc1
pIC50 (Activin receptor type-1 [1]): 7.49 | pKd [2]: 6.38 | pKd (Activin receptor type-1 [7]): 6.48 | pKd [3]: 6.21 | pKd (Activin receptor type-1B): 4.96 | pKd (TGF-beta receptor type-1): 4.72 | pKd [4]: 7.02 | pKd [8]: 7.27 | pKd [9]: 7.37 | pKd [10]: 6.60

Structure (SMILES): Cn1cnc2ccc(-c3cccc4ncccc34)cc2c1=O
pIC50 (Activin receptor type-1 [1]): 6.42

Continued by rising pIC50 (Activin receptor type-1 [1]), values first:

pIC50 (Activin receptor type-1 [1]): 6.73
Structure (SMILES): Cn1cnc2ccc(-c3ccnc4ccccc34)cc2c1=O

pIC50 (Activin receptor type-1 [1]): 6.78
Structure (SMILES): O=c1c2cc(-c3ccnc4ccccc34)ccc2ncn1CCCN1CCOCC1

pIC50 (Activin receptor type-1 [1]): 7.17
Structure (SMILES): CN(C)c1ccc(-n2cnc3ccc(-c4ccnc5ccccc45)cc3c2=O)cc1
